Reference: patent publication US20090197906A1, “REVERSION OF MALIGNANT PHENOTYPE WITH 9-HYDROXY ELLIPTICINE DERIVATIVES” (priority 2006, published 2009)

Experiments:
B16BL6 = experiment: cloning assay in methylcellulose (colony formation); type: cell-based; conditions: read-out: Inhibition of colony formation (methylcellulose) IC50
Method: (§1) Cells were embedded in complete culture medium supplemented with 0.8% methylcellulose (Methocel MC4000, Sigma), seeded in triplicate into 35-mm dishes (Greiner Bio-one Ref 627102, Dominique Dutscher) and incubated at 37° C. in a humidified 5% CO2 atmosphere. The number of cells seeded was 1000 cells per dish. After one to three weeks, according to cell lines, macroscopic clones were counted.

SK-N-MC = experiment: as above; type: cell-based; conditions: read-out: Inhibition of colony formation (methylcellulose) IC50
Method: as §1

CS(=O)(=O)[O-].Cc1c2cc[n+](CCN3CCCCC3)cc2c(C)c2c1[nH]c1ccc(O)cc12 [BA016FZ539, 2-(betapiperidino-2-ethyl)-9-hydroxyellipticinium methanesulfonate]
IC50 (B16BL6): 29 nM
IC50 (SK-N-MC): 205 nM
